# Target: T1, human active recombinant p38α-6His tagged (Homo sapiens, UniProt Q16539)
# T1 construct: 6His
# Test: P38 alpha enzyme assay (AlphaScreen, biotinylated-ATF2 substrate)
# Format: biochemical
# Settings: 4 hours pre-incubation at 37° C., 1 mM ATP added
# Experimental: Enzyme assays were performed in polypropylene 96 well plates. The following solutions were added to each well; 10 μL of compound dilutions in assay buffer (20 mM HEPES pH 7.4, containing 20 mM magnesium acetate, 0.005% (w/v) Tween-20, 10 mM DTT) containing 1% (v/v) DMSO or assay buffer containing 1% (v/v) DMSO alone, 70 μL of assay buffer containing 36 nM substrate (biotinylated-ATF2) and 10 μL of an appropriate dilution of human active recombinant p38α-6His tagged. Depending on batch of p38, an appropriate dilution was typically a 5 nM solution to give a final enzyme concentration of 0.5 nM. At this stage, background control wells also received 50 μL of AlphaScreen quench buffer (10 mM HEPES pH 7.4 containing 100 mM EDTA, 0.2% (w/v) bovine serum albumin). The plate was covered, pre-incubated for 4 hours at 37° C. and the enzyme reaction initiated by addition of 10 μL 1 mM ATP. After incubation for a further 45 minutes at 37° C., the reaction was stopped by addition of 50 μL quench reagent and 50 μL of the quenched reaction mixture transferred to an opaque, white 96-well plate. Detection reagent, 25 μL of 10 mM HEPES pH 7.4 containing 100 mM EDTA, 0.2% (w/v) bovine serum albumin, 0.3 nM anti phosphoATF2 antibody and 25 μg/mL of AlphaScreen protein A acceptor and donor beads, was added to all wells in a darkened room, the plate sealed and left in the dark for between 5 and 24 hours before AlphaScreen readings were taken using a Perkin Elmer EnVision reader.
# T1 sequence (Q16539 whole entry): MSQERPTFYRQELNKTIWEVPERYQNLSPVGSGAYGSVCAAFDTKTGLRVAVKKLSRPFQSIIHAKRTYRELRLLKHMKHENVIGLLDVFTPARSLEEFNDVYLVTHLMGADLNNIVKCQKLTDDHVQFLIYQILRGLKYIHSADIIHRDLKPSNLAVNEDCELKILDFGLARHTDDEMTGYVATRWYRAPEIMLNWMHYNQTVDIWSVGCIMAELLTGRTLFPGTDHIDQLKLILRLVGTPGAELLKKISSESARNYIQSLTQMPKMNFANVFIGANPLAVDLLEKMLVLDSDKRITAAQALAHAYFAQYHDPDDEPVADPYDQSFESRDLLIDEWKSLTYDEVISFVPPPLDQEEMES
row,Compound,IC50
1,"Cc1ccc(NC(=O)c2cccc(N3CCCCC3)c2)cc1-n1ccc2ccc(OCCN3CCCC3)cc2c1=O [Example 1, N-{4-Methyl-3-[1-oxo-7-(2-pyrrolidin-1-ylethoxy)isoquinolin-2(1H)-yl]phenyl}-3-piperidin-1-ylbenzamide]",10 nM
2,"Cc1ccc(NC(=O)c2ccnc(N3CCCC3)c2)cc1-n1ccc2ccc(OCCN3CCCC3)cc2c1=O [Example 5, N-{4-Methyl-3-[1-oxo-7-(2-pyrrolidin-1-ylethoxy)isoquinolin-2(1H)-yl]phenyl}-2-pyrrolidin-1-ylisonicotinamide]",2 nM
3,"Cc1ccc(NC(=O)c2ccnc(-c3cccs3)c2)cc1-n1ccc2ccc(OCCN(C)C)cc2c1=O [Example 9, N-{3-[7-[2-(dimethylamino)ethoxy]-1-oxoisoquinolin-2(1H)-yl]-4-methylphenyl}-2-(2-thienyl)isonicotinamide]",0.2 nM
4,"Cc1ccc(NC(=O)c2cccc(-c3cnco3)c2)cc1-n1ccc2ccc(OCCCN3CCCC3)cc2c1=O [Example 11, N-{4-Methyl-3-[1-oxo-7-(3-pyrrolidin-1-ylpropoxy)isoquinolin-2(1H)-yl]phenyl}-3-(1,3-oxazol-5-yl)benzamide]",0.794 nM
